Data reported in the NIST ThermoML archive (doi:10.1021/je500731x).

Details: Liquid, Ebulliometric method (Recirculating still)

CCO [ethanol]
Details | vapor or sublimation pressure [kPa]
351.14 K | 101.3

CCCCCCCCC [nonane]
Details | vapor or sublimation pressure [kPa]
391.78 K | 40
391.87 K | 40
391.9 K | 40

CCCCO [butan-1-ol]
Details | vapor or sublimation pressure [kPa]
390.49 K | 101.3

CCCCC(=O)CC [3-heptanone]
Details | vapor or sublimation pressure [kPa]
354.82 K | 11.05
358.58 K | 12.93
363.03 K | 15.51
367.95 K | 18.75
373.6 K | 23.27
377.99 K | 27.11
383.09 K | 32.58
388.11 K | 40
388.36 K | 40
388.62 K | 39.13
388.67 K | 40
393.02 K | 45.12
398.84 K | 54.02
404.44 K | 64.03
409.63 K | 74.5
412.95 K | 82
416.5 K | 90.5

CCCCCC(C)=O [2-heptanone]
Details | vapor or sublimation pressure [kPa]
354.77 K | 9.87
358.59 K | 11.52
365.38 K | 15.05
367.88 K | 16.52
368.9 K | 17.34
373.79 K | 20.76
373.84 K | 20.76
379.25 K | 25.32
379.3 K | 25.32
383.78 K | 29.69
383.83 K | 29.69
388.51 K | 34.81
392.54 K | 40
393.11 K | 40.52
398.45 K | 48.09
403.15 K | 55.74
405.81 K | 60.35
409.67 K | 67.5
413.3 K | 75.05
416.77 K | 83.2
420.2 K | 91.5

CCCC(=O)CCC [4-heptanone]
Details | vapor or sublimation pressure [kPa]
358.74 K | 14.54
363.42 K | 17.72
370.01 K | 22.69
377.77 K | 29.93
383.7 K | 36.63
385.47 K | 40
385.5 K | 40
385.87 K | 40
388.63 K | 43.17
393.78 K | 50.95
398.38 K | 59.15
403.74 K | 69.39
407.98 K | 78.55
411.2 K | 86.2
413.43 K | 91.55

CCCCCCCC [octane]
Details | vapor or sublimation pressure [kPa]
367.97 K | 40
368.3 K | 40
368.32 K | 40

CCCCCCCCCC [decane]
Details | vapor or sublimation pressure [kPa]
413.88 K | 40
